Substitutions are numbered along the chain they refer to. Names may count otherwise. “Also recorded” adds a separate entry of the source. Where two headings read alike, the source gives them in different places.
Key:
[1] = Phase I study of AP1903 in healthy volunteers; assay type: in vivo; conditions: male, human, plasma, intravenous, 0.4 mg/kg; reached within 15-30 min
Experimental: FIG. 49(A-B) provides the results of a dose-escalation study in normal male volunteers. FIG. 49A is a line graph and 49B is a chart. Healthy volunteers were infused with the indicated doses of AP1903 and at various time points, serum levels of AP1903 were measured using HPLC analysis.
In a previous Phase I study of AP1903, 24 healthy volunteers were treated with single doses of AP1903 for Injection at dose levels of 0.01, 0.05, 0.1, 0.5 and 1.0 mg/kg infused IV over 2 hours. […] Iuliucci J D, et al., J Clin Pharmacol. 41: 870-9, 2001.

CD3+ΔCD19+ cells = test: CASPALLO phase 1 trial: AP1903 in patients with GvHD after iCasp9 T cell infusion; assay type: in vivo, human
human CD3+CD19+ T cells = test: AP1903 dose-dependent elimination in vivo of iCasp9-transduced T cells in NSG mice; set-up: species or system immune deficient mice (NSG); conditions: i.p., wild-type iCasp9-transduced T cells, 24 hours
Experimental: FIG. 65A-B: AP1903 dose-dependent elimination in vivo of T cells transduced with wild-type iCasp9. T cells were transduced with SFG-iCasp9-2A-ΔCD19 retrovirus and injected i.v. into immune deficient mice (NSG). After 24 hours, mice were injected i.p. with AP1903 (0-5 mg/kg). After an additional 24 hours, mice were sacrificed and lymphocytes from the spleen (65A) and peripheral blood (65B) were isolated and analyzed by flow cytometry for the frequency of human CD3^+CD19^+ T cells.
FIG. 66: AP1903 dose-dependent elimination in vivo of T cells transduced with D330E iCasp9. T cells were transduced with SFG-iCasp9-D330E-2A-ΔCD19 retrovirus and injected i.v. into immune deficient mice (NSG). After 24 hours, mice were injected i.p. with AP1903 (0-5 mg/kg). After an additional 24 hours, mice were sacrificed and lymphocytes from the spleen (A) were isolated and analyzed by flow cytometry for the frequency of human CD3^+CD19^+ T cells.

cells = test: AP1903 needed in vitro for effective signaling of cells; assay type: cell-based
[2] = cited from earlier work
HEK293T/16 cells = test: Secreted alkaline phosphatase (SEAP) reporter-based surrogate killing assay; assay type: cell-based, human; conditions: AP1903-independent SEAP activity, relative to wild type
Experimental: FIG. 45 provides an analysis of SEAP assays. To examine both basal signaling and AP1903 induced activity, […] early-passage HEK293T/16 cells were co-transfected with various amount of wildtype Caspase and 500 ng of an expression plasmid that uses an SRα promoter to drive SEAP, a marker for cell viability. […] of the mixture was seeded onto each well of a 96-well plate. 100-ul of AP1903 was added at least three hours post-transfection. After addition of AP1903 for at least 24 hours, 100-ul of supernatant was transferred to a 96-well plate and heat denatured at 68 ? C for 30 minutes to inactivate endogenous alkaline phosphatases. For the assay, 4-methylumbelliferyl phosphate substrate was hydrolyzed by SEAP to 4-methylumbelliferon, a metabolite that can be excited with 364 nm and detected with an emission filter of 448 nm. Since SEAP is used as a marker for cell viability, reduced SEAP reading corresponds with increased icaspase-9 activities.
(50A) To examine both basal signaling and AP1903-induced CaspaClDe activity, 10^6 early-passage HEK293T/17 cells were co-transfected with 2 μg of inducible caspase variants along with 500 ng of an expression plasmid using an SRα promoter to transcriptionally regulate SEAP, a surrogate marker for cell viability. 200-μl of the transfection mixture containing plasmids, GeneJammer and HEK293T/17 cells in IMDM+10% FBS (without antibiotics) was seeded into each well of a 96-well plate. To induce caspase activity, 22 μl of serially diluted AP1903 was added 24 hours post-transfection. (50B) To examine basal and AP1903 induced signaling, 100 μl of supernatant was harvested 48 hours post-treatment and heat-denatured at 68° C. for 1 hour to inactivate endogenous alkaline phosphatases. For the assay, 4-methylumbelliferyl phosphate (4-MUP) substrate was hydrolyzed by SEAP to 4-methylumbelliferon, a metabolite with peak excitation at 364 nm and peak emission at 448 nm. Since SEAP is used as a surrogate marker for cell viability, a reduced SEAP reading corresponds to increased caspase-9 activity.
Early passage HEK293T/16 cells (ATCC, Manassas, Va.) were maintained in IMDM, GlutaMAX™ (Life Technologies, Carlsbad, Calif.) supplemented with 10% FBS, 100 U/mL penicillin, and 100 […] until transfection in a humidified, 37° C., 5% CO2/95% air atmosphere. Cells in logarithmic-phase growth were transiently transfected with 800 ng to 2 μg of expression plasmid encoding iCasp9 mutants and 500 ng of an expression plasmid encoding SRα promoter driven SEAP per million cells in 15-mL conical tubes. […] GeneJammer® Transfection Reagent at a ratio of 3 μl per ug of plasmid DNA was used to transiently transfect HEK293T/16 cells in the absence of antibiotics. 100 μl or 2 mL of the transfection mixture was added to each well in 96-well or 6-well plate, respectively. For SEAP assays, log dilutions of AP1903 were added after a minimum 3-hour incubation post-transfection. For western blots, cells were incubated for 20 minutes with AP1903 (10 nM) before harvesting.
Twenty-four to forty-eight hours after AP1903 treatment, ˜100 μl of supernatants were harvested into a 96-well plate and assayed for SEAP activity as described. Briefly, after 65° C. heat denaturation for 45 minutes to reduce background caused by endogenous (and serum-derived) alkaline phosphatases that are sensitive to heat, 5 μl of supernatants was added to 95 μl of PBS and added to 100 μl of substrate buffer, containing 1 μl of 100 mM 4-methylumbelliferyl phosphate (4-MUP; Sigma, St. Louis, Mo.) re-suspended in 2 M diethanolamine. Hydrolysis of 4-MUP by SEAP produces a fluorescent […] with excitation/emission (355/460 nm), which can be easily measured. Assays were performed in black opaque 96-well plates to minimize fluorescence leakage between wells (FIG. 45).

Activated T cells = test: Control of proliferation of iCasp9-mutant-transduced T cells over 10 days; assay type: cell-based; conditions: AP1903 on days 0 and 4
Excerpt: FIG. 63: iCasp9 mutants with lower sensitivity to AP1903 still control T cell proliferation in vitro. Activated T cells were transduced with retrovirus containing iCasp9 mutants and treated with AP1903 (arrow) on days 0 and 4 and subsequently enumerated for 10 days.

CC[C@H](C(=O)N1CCCC[C@H]1C(=O)O[C@H](CCc1ccc(OC)c(OC)c1)c1cccc(OCC(=O)NCCNC(=O)COc2cccc([C@@H](CCc3ccc(OC)c(OC)c3)OC(=O)[C@@H]3CCCCN3C(=O)[C@@H](CC)c3cc(OC)c(OC)c(OC)c3)c2)c1)c1cc(OC)c(OC)c(OC)c1 (relative stereo) [AP1903, 2-Piperidinecarboxylic acid, 1-[(2S)-1-oxo-2-(3,4,5-trimethoxyphenyl)butyl]-, 1,2-ethanediylbis[imino(2-oxo-2,1-ethanediyl)oxy-3,1-phenylene[(1R)-3-(3,4-dimethoxyphenyl)propylidene]] ester, [2S-[1(R*),2R*[S*[S*[1(R*),2R*]]]]]-(9Cl)]
Cmax [1]: 100 to 1000 nM | effect of a single dose on GvHD-causing and virus specific T cells (CD3+ΔCD19+ cells; human, in vivo): can reduce or eliminate the subpopulation of T cells causing GvHD, but can spare virus specific CTLs | further reduction of CD3+ΔCD19+ cells (CD3+ΔCD19+ cells; within 24 hours): additional log killing | dose sufficient to eliminate most modified T cells in vivo (human CD3+CD19+ T cells): 0.5 mg/kg | amount needed in vitro for effective signaling of cells (cells): 10 to 100 nM | safety and tolerability in healthy volunteers ([2]; 0.01 mg/kg to 1.0 mg/kg dose range, listed as AP1903 for Injection): safe and well tolerated at all dose levels | relation of plasma levels to dose ([2]; 0.01-1.0 mg/kg): directly proportional to dose | plasma level as % of maximal concentration ([2]; 2 hours post-dose): ~7% | plasma level as % of maximal concentration ([2]; 10 hours post-dose): ~1% | well-tolerated doses ([2]; Phase I study): up to 1 mg/kg

B1: F404Y: chimeric modified caspase-9 polypeptide (protein)
chain: VDGFGDVGALESLRGNADLAYILSMEPCGHCLIINNVNFCRESGLRTRTGSNIDCEKLRRRFSSLHFMVEVKGDLTAKKMVLALLELARQDHGALDCCVVVILSHGCQASHLQFPGAVYGTDGCPVSVEKIVNIFNGTSCPSLGGKPKLFFIQACGGEQKDHGFEVASTSPEDESPGSNPEPDATPFQEGLRTFDQLDAISSLPTPSDIFVSYSTFPGFVSWRDPKSGSWYVETLDDIFEQWAHSEDLQSLLLRVANAVSVKGIYKQMPGCYNFLRKKLFFKTSASRA
basal activity / basal signaling (in words) (HEK293T/16 cells): lower basal signaling; also recorded: lowered basal activity | control of T cell proliferation and survival within 10 days (in words) (Activated T cells): can kill target T cells indistinguishable from wildtype caspase-9 polypeptide or D330A within 10 days

B2: F406L: chimeric modified caspase-9 polypeptide (protein)
chain: B1 chain with Y272F, F274L
basal activity / basal signaling (in words) (HEK293T/16 cells): lowered basal activity

B3: F406T: chimeric modified caspase-9 polypeptide (protein)
chain: B1 chain with Y272F, F274T
basal activity / basal signaling (in words) (HEK293T/16 cells): lower basal signaling; also recorded: lowered basal activity

B4: D330S: chimeric modified caspase-9 polypeptide (protein)
chain: B1 chain with D198S, Y272F
basal activity / basal signaling (in words) (HEK293T/16 cells): less basal activity than wildtype caspase-9

B5: D330G: chimeric modified caspase-9 polypeptide (protein)
chain: B1 chain with D198G, Y272F
basal activity / basal signaling (in words) (HEK293T/16 cells): less basal activity than wildtype caspase-9

B6: F404W: chimeric modified caspase-9 polypeptide (protein)
chain: B1 chain with Y272W
basal activity / basal signaling (in words) (HEK293T/16 cells): lower basal signaling; also recorded: lowered basal activity

B7: S144A: chimeric modified caspase-9 polypeptide (protein)
chain: B1 chain with S12A, Y272F
basal activity / basal signaling (in words) (HEK293T/16 cells): lower basal activity

B8: D330V: chimeric modified caspase-9 polypeptide (protein)
chain: B1 chain with D198V, Y272F
basal activity / basal signaling (in words) (HEK293T/16 cells): less basal activity than wildtype caspase-9

B9: D330N: chimeric modified caspase-9 polypeptide (protein)
chain: B1 chain with D198N, Y272F
basal activity / basal signaling (in words) (HEK293T/16 cells): less basal activity than wildtype caspase-9
